According to PubChem BioAssay AID248 (DTP/NCI, 2004):
Where “and” joins values, the source holds several entries; their conditions need not be identical. Equal values may be shown once. Inconclusive results and toxic doses are left out. Cut-off read from the data, not from the text of the source: active = T/C of 150% or more; inactive = T/C below 125%.

Test system: L1210 leukemia ip in BDF1 mice, survival T/C
Test: NCI In Vivo Anticancer Drug Screen. Data for tumor model L1210 Leukemia (intraperitoneal) in B6D2F1 (BDF1) mice
Conditions: endpoint: mean survival time, higher = longer survival
Procedure, shortened: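 Survival endpoint. Drug-treated group vs vehicle group, expressed as T divided by C. Tumor passaged by transplantation.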

[1] = dose: 100.0 mg/kg/injection, schedule: Q01DX001 (ip), vehicle: saline
[2] = dose: 100.0 mg/kg/injection, schedule: Q01DX009 (ip), vehicle: saline
[3] = dose: 100.0 mg/kg/injection, schedule: Q04DX003 (ip), vehicle: saline
[4] = dose: 100.0 mg/kg/injection, schedule: Q04DX002 (ip), vehicle: Klucel (hydroxypropylcellulose) (HPC)
[5] = dose: 200.0 mg/kg/injection, schedule: Q04DX002 (ip), vehicle: Klucel (hydroxypropylcellulose) (HPC)
[6] = dose: 400.0 mg/kg/injection, schedule: Q04DX002 (ip), vehicle: Klucel (hydroxypropylcellulose) (HPC)
[7] = dose: 100.0 mg/kg/injection, schedule: Q04DX003 (ip), vehicle: Klucel (hydroxypropylcellulose) (HPC)
[8] = dose: 200.0 mg/kg/injection, schedule: Q04DX003 (ip), vehicle: Klucel (hydroxypropylcellulose) (HPC)
[9] = dose: 100.0 mg/kg/injection, schedule: Q01DX009 (ip), vehicle: saline with Tween-80
[10] = dose: 100.0 mg/kg/injection, schedule: Q04DX003 (ip), vehicle: saline with Tween-80
[11] = dose: 200.0 mg/kg/injection, schedule: Q01DX009 (ip), vehicle: saline with Tween-80
[12] = dose: 200.0 mg/kg/injection, schedule: Q04DX003 (ip), vehicle: saline with Tween-80
[13] = dose: 400.0 mg/kg/injection, schedule: Q01DX009 (ip), vehicle: saline with Tween-80
[14] = dose: 100.0 mg/kg/injection, schedule: Q01DX001 (ip), vehicle: saline with Tween-80
[15] = dose: 100.0 mg/kg/injection, schedule: Q04DX002 (ip), vehicle: saline with Tween-80
[16] = dose: 200.0 mg/kg/injection, schedule: Q01DX001 (ip), vehicle: saline with Tween-80
[17] = dose: 200.0 mg/kg/injection, schedule: Q04DX002 (ip), vehicle: saline with Tween-80
[18] = dose: 400.0 mg/kg/injection, schedule: Q01DX001 (ip), vehicle: saline with Tween-80
[19] = dose: 400.0 mg/kg/injection, schedule: Q04DX002 (ip), vehicle: saline with Tween-80
[20] = dose: 200.0 mg/kg/injection, schedule: Q01DX009 (ip), vehicle: saline
[21] = dose: 400.0 mg/kg/injection, schedule: Q01DX009 (ip), vehicle: saline
[22] = dose: 100.0 mg/kg/injection, schedule: Q04DX002 (ip), vehicle: saline
[23] = dose: 200.0 mg/kg/injection, schedule: Q04DX002 (ip), vehicle: saline
[24] = dose: 200.0 mg/kg/injection, schedule: Q04DX003 (ip), vehicle: saline
[25] = dose: 400.0 mg/kg/injection, schedule: Q04DX003 (ip), vehicle: saline
[26] = dose: 75.0 mg/kg/injection, schedule: Q01DX001 (ip), vehicle: carboxymethylcellulose (CMC)
[27] = dose: 150.0 mg/kg/injection, schedule: Q01DX001 (ip), vehicle: carboxymethylcellulose (CMC)
[28] = dose: 300.0 mg/kg/injection, schedule: Q01DX001 (ip), vehicle: carboxymethylcellulose (CMC)
[29] = dose: 50.0 mg/kg/injection, schedule: Q01DX009 (ip), vehicle: saline with Tween-80

Measured: T/C

CC(=O)O[C@@H]1C[C@@]2(C)[C@@H]3CC=C4[C@@H](C[C@H](O)C(=O)C4(C)C)[C@]3(C)C(=O)C[C@]2(C)[C@H]1[C@@](C)(O)C(=O)/C=C/C(C)(C)OC(C)=O
inactive: dose: 50.0 mg/kg/injection, schedule: Q01DX001 (ip), vehicle: saline 102 % of control | [1] 107 % of control

CN(C)CCCN1CCC2(CC[C@H]3CCCC[C@@H]3C2)CC1
inactive: dose: 9.0 mg/kg/injection, schedule: Q01DX015 (ip), vehicle: saline 91 % of control | dose: 18.0 mg/kg/injection, schedule: Q01DX015 (ip), vehicle: saline 97 % of control | dose: 25.0 mg/kg/injection, schedule: Q01DX009 (ip), vehicle: saline 101 % of control | dose: 25.0 mg/kg/injection, schedule: Q04DX003 (ip), vehicle: saline 90 % of control | dose: 36.0 mg/kg/injection, schedule: Q01DX015 (ip), vehicle: saline 101 % of control | dose: 50.0 mg/kg/injection, schedule: Q01DX009 (ip), vehicle: saline 101 % of control | dose: 50.0 mg/kg/injection, schedule: Q04DX003 (ip), vehicle: saline 93 % of control | dose: 72.0 mg/kg/injection, schedule: Q01DX015 (ip), vehicle: saline 114 % of control | [2] 109 % of control | [3] 104 % of control

COC(=O)c1cccc([N+](=O)[O-])c1Br
inactive: dose: 50.0 mg/kg/injection, schedule: Q01DX001 (ip), vehicle: other 102 % of control | dose: 100.0 mg/kg/injection, schedule: Q01DX001 (ip), vehicle: other 96 % of control | dose: 200.0 mg/kg/injection, schedule: Q01DX001 (ip), vehicle: other 102 % of control | dose: 400.0 mg/kg/injection, schedule: Q01DX001 (ip), vehicle: other 100 % of control

O=S1C=Cc2ccccc21 (centres undefined)
inactive: [4] 101 % of control | [5] 116 % of control | [6] 105 % of control

O=C(Nc1ccccc1)Oc1cccc2cccnc12
inactive: dose: 50.0 mg/kg/injection, schedule: Q04DX003 (ip), vehicle: Klucel (hydroxypropylcellulose) (HPC) 100 % of control | [7] 105 % of control | [8] 97 % of control

CCCCC(CC)COC(C)=O (centres undefined)
inactive: [9] 94 % of control | [10] 98 % of control | [11] 102 % of control | [12] 93 % of control | [13] 91 % of control | dose: 400.0 mg/kg/injection, schedule: Q04DX003 (ip), vehicle: saline with Tween-80 92 % of control

O=C(CCc1ccccc1)Nc1ccc(F)cc1
inactive: [14] 95 % of control | [9] 97 % of control and 106 % of control | [15] 94 % of control and 98 % of control | [16] 95 % of control | [11] 93 % of control and 95 % of control | [17] 94 % of control and 102 % of control | [18] 94 % of control | [13] 98 % of control and 101 % of control | [19] 94 % of control and 97 % of control

Cc1ccc(S(=O)(=O)N(C)c2ccc(C(=O)O)cc2F)cc1
inactive: dose: 75.0 mg/kg/injection, schedule: Q01DX001 (ip), vehicle: saline 105 % of control | dose: 75.0 mg/kg/injection, schedule: Q04DX003 (ip), vehicle: saline 100 % of control | dose: 150.0 mg/kg/injection, schedule: Q01DX001 (ip), vehicle: saline 90 % of control | dose: 150.0 mg/kg/injection, schedule: Q04DX003 (ip), vehicle: saline 97 % of control | dose: 300.0 mg/kg/injection, schedule: Q01DX001 (ip), vehicle: saline 98 % of control | dose: 300.0 mg/kg/injection, schedule: Q04DX003 (ip), vehicle: saline 97 % of control

O=C(O)CC(Br)CBr (centres undefined)
inactive: [1] 94 % of control | dose: 200.0 mg/kg/injection, schedule: Q01DX001 (ip), vehicle: saline 103 % of control

CC1=CCC(O)(C(C)C)CC1 (centres undefined)
inactive: [2] 93 % of control | [20] 93 % of control | [21] 95 % of control

O=C(NCc1ccncc1)Nc1ccccc1Cl
inactive: [22] 97 % of control | [23] 87 % of control

O=S1(=O)CC=CC1
inactive: [3] 103 % of control | [24] 97 % of control | [25] 97 % of control

O=C(O)c1cccc(F)c1C(=O)c1ccc2ccccc2c1
inactive: [26] 96 % of control | [7] 97 % of control | [27] 95 % of control | [8] 105 % of control | [28] 93 % of control

COc1ccc(-n2c(O)c(N=Nc3ccccc3C)c(=O)n(-c3ccccc3)c2=S)cc1
inactive: dose: 37.5 mg/kg/injection, schedule: Q01DX001 (ip), vehicle: Klucel (hydroxypropylcellulose) (HPC) 103 % of control | dose: 75.0 mg/kg/injection, schedule: Q01DX001 (ip), vehicle: Klucel (hydroxypropylcellulose) (HPC) 97 % of control | dose: 150.0 mg/kg/injection, schedule: Q01DX001 (ip), vehicle: Klucel (hydroxypropylcellulose) (HPC) 94 % of control

Cc1ccc(Cl)cc1NC(=O)N(C)C1CCCCC1
inactive: [14] 101 % of control | [9] 94 % of control and 120 % of control | [15] 104 % of control and 106 % of control | [3] 97 % of control | [16] 106 % of control | [11] 96 % of control and 113 % of control | [17] 98 % of control and 109 % of control | [24] 111 % of control | [18] 98 % of control | [13] 100 % of control and 110 % of control | [19] 95 % of control and 112 % of control | [25] 90 % of control

CC(NCCO)C(O)c1ccccc1 (centres undefined)
inactive: [2] 94 % of control | [3] 95 % of control | [20] 94 % of control | [24] 104 % of control | [21] 103 % of control | [25] 97 % of control

Cc1ccc(S(=O)(=O)Nc2ccccc2)cc1
inactive: [4] 100 % of control | [5] 94 % of control | [6] 91 % of control

CC(C)(C)c1ccc(/C=[N+](\[O-])C(C)(C)C)c(C(C)(C)C)c1O
inactive: dose: 50.0 mg/kg/injection, schedule: Q04DX002 (ip), vehicle: saline with Tween-80 102 % of control | [15] 98 % of control | [17] 102 % of control | [19] 95 % of control

NCC(O)C(F)(F)C(F)(F)C(F)(F)F (centres undefined)
inactive: dose: 100.0 mg/kg/injection, schedule: Q01DX001 (ip), vehicle: carboxymethylcellulose (CMC) 103 % of control | dose: 200.0 mg/kg/injection, schedule: Q01DX001 (ip), vehicle: carboxymethylcellulose (CMC) 103 % of control | dose: 400.0 mg/kg/injection, schedule: Q01DX001 (ip), vehicle: carboxymethylcellulose (CMC) 95 % of control

COC(=O)C1C(C(=O)OC)C1(c1ccccc1)c1ccccc1 (centres undefined)
inactive: dose: 100.0 mg/kg/injection, schedule: Q01DX001 (ip), vehicle: steriod suspending solution 95 % of control | dose: 200.0 mg/kg/injection, schedule: Q01DX001 (ip), vehicle: steriod suspending solution 112 % of control | dose: 400.0 mg/kg/injection, schedule: Q01DX001 (ip), vehicle: steriod suspending solution 95 % of control

C=CCOc1ccccn1
inactive: [29] 98 % of control | dose: 50.0 mg/kg/injection, schedule: Q04DX003 (ip), vehicle: saline with Tween-80 105 % of control | [9] 104 % of control | [10] 98 % of control | [11] 98 % of control | [12] 102 % of control

CC(Cl)CO (centres undefined)
inactive: [26] 108 % of control | [27] 97 % of control | [28] 97 % of control

CC12CCC(Cl)(CC1)CC2=O
inactive: [22] 95 % of control | [23] 95 % of control | dose: 400.0 mg/kg/injection, schedule: Q04DX002 (ip), vehicle: saline 98 % of control

ClC(Cl)(Cl)c1cccc(-c2nc(C(Cl)(Cl)Cl)nc(C(Cl)(Cl)Cl)n2)c1
inactive: [4] 106 % of control | [5] 90 % of control | [6] 100 % of control

Clc1ccc(C#CP(C#Cc2ccc(Cl)cc2)C#Cc2ccc(Cl)cc2)cc1
inactive: [29] 88 % of control | [9] 103 % of control
